According to ChEMBL document CHEMBL1201862, “PubChem BioAssay data set” (2004):
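Cultured in 96-well plates, cells were exposed to test compound for 48 hours across five concentrations. The concentration for 50% growth inhibition is given as GI50.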 Activity calls are given as the source filed them. Cut-off read from the data, not from the text of the source: active = GI50 up to about 1.1 µM and inactive = higher.

Experiments:
Assay in all cases: NCI-60 cell line screen, 48 h
UACC-257 = tested on: UACC-257
MDA-MB-231 = tested on: MDA-MB-231
MOLT-4 = tested on: MOLT-4
SNB-19 = tested on: SNB-19
HCT-116 = tested on: HCT-116
HT-29 = tested on: HT-29
IGROV-1 = tested on: IGROV-1
SF-539 = tested on: SF-539
SK-OV-3 = tested on: SK-OV-3
CAKI-1 = tested on: CAKI-1
A549 = tested on: A549
KM12 = tested on: KM12
DU-145 = tested on: DU-145
NCI-H460 = tested on: NCI-H460
RPMI-8226 = tested on: RPMI-8226
OVCAR-3 = tested on: OVCAR-3
NCI/ADR-RES = tested on: NCI/ADR-RES
MCF7 = tested on: MCF7
HL-60 = tested on: HL-60
SW-620 = tested on: SW-620

Measured: GI50

O=C1CCCC1C(O)(C(F)(F)Cl)C(F)(F)Cl (stereo not given)
inactive: UACC-257 > 10 µM | MDA-MB-231 > 10 µM | MOLT-4 > 10 µM | SNB-19 > 10 µM | HCT-116 > 10 µM | HT-29 > 10 µM | IGROV-1 > 10 µM | SF-539 > 10 µM | SK-OV-3 > 10 µM | CAKI-1 > 10 µM | A549 > 10 µM | KM12 > 10 µM | DU-145 > 10 µM | NCI-H460 > 10 µM | RPMI-8226 > 10 µM | OVCAR-3 > 10 µM | NCI/ADR-RES > 10 µM | MCF7 > 10 µM | HL-60 > 10 µM | SW-620 > 10 µM

O=C(O)c1cc(-c2ccncc2)nc2ccccc12
inactive: UACC-257 > 100 µM | MDA-MB-231 > 100 µM | MOLT-4 > 100 µM | SNB-19 > 100 µM | HCT-116 > 100 µM | HT-29 > 100 µM | IGROV-1 > 100 µM | SF-539 > 100 µM | SK-OV-3 > 100 µM | CAKI-1 > 100 µM | A549 > 100 µM | KM12 > 100 µM | DU-145 > 100 µM | NCI-H460 > 100 µM | RPMI-8226 > 100 µM | OVCAR-3 > 100 µM | NCI/ADR-RES > 100 µM | MCF7 > 100 µM | HL-60 > 100 µM | SW-620 > 100 µM

O=C(/C=C/c1ccccc1)Oc1ccc(C(=O)/C=C/c2ccccc2)cc1
inactive: UACC-257 13.6 µM | MDA-MB-231 13.2 µM | MOLT-4 11.2 µM | SNB-19 15.1 µM | HCT-116 9.64 µM | HT-29 12.1 µM | IGROV-1 11.5 µM | SF-539 3.24 µM | SK-OV-3 21.4 µM | CAKI-1 13.1 µM | A549 25.1 µM | KM12 5.4 µM | DU-145 10.3 µM | NCI-H460 8.87 µM | RPMI-8226 3.25 µM | OVCAR-3 10.3 µM | NCI/ADR-RES 12.1 µM | MCF7 6.08 µM | HL-60 2.84 µM | SW-620 8.75 µM
